Data as given in PubChem BioAssay AID330 (DTP/NCI, 2004).
Where “and” joins values, the source holds several entries; their conditions need not be identical. Equal entries are not always repeated. Toxic doses and inconclusive results are not listed.

System: P388 leukemia ip, CD2F1 mice, survival T/C
Assay: NCI In Vivo Anticancer Drug Screen. Data for tumor model P388 Leukemia (intraperitoneal) in CD2F1 (CDF1) mice
Conditions: endpoint: median survival time, higher = longer survival
Outline: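 Mice carrying the transplanted tumor received test compound or vehicle. Survival was recorded in each group, and the value is the treated-group measurement divided by that of the vehicle-treated control group.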

[1] = dose: 60.0 mg/kg/injection, schedule: Q01DX005 (ip), vehicle: saline with Tween-80
[2] = dose: 120.0 mg/kg/injection, schedule: Q01DX005 (ip), vehicle: saline with Tween-80
[3] = dose: 240.0 mg/kg/injection, schedule: Q01DX005 (ip), vehicle: saline with Tween-80
[4] = dose: 50.0 mg/kg/injection, schedule: Q01DX009 (ip), vehicle: saline with Tween-80
[5] = dose: 100.0 mg/kg/injection, schedule: Q01DX009 (ip), vehicle: saline with Tween-80
[6] = dose: 200.0 mg/kg/injection, schedule: Q01DX009 (ip), vehicle: saline with Tween-80
[7] = dose: 50.0 mg/kg/injection, schedule: Q01DX005 (ip), vehicle: Klucel (hydroxypropylcellulose) (HPC)
[8] = dose: 50.0 mg/kg/injection, schedule: Q01DX009 (ip), vehicle: saline
[9] = dose: 25.0 mg/kg/injection, schedule: Q01DX009 (ip), vehicle: saline with Tween-80

Q: For CC1C(=O)NC(=O)CC1c1ccccc1 (stereo not drawn), which T/C (dose: 100.0 mg/kg/injection, schedule: Q04DX002 (ip), vehicle: saline with Tween-80) is on record?
A: 100 % of control

Q: And the T/C (dose: 200.0 mg/kg/injection, schedule: Q04DX002 (ip), vehicle: saline with Tween-80)?
A: 103 % of control

Q: What about the T/C (dose: 400.0 mg/kg/injection, schedule: Q04DX002 (ip), vehicle: saline with Tween-80) of the same molecule?
A: 95 % of control

Q: With COC1=CC2C3C(=O)NC(=O)C3C1C1CC(C#N)C21OC (stereo not drawn) as the molecule, how does the T/C (dose: 100.0 mg/kg/injection, schedule: Q01DX001 (ip), vehicle: saline with Tween-80) read?
A: 104 % of control

Q: And the T/C (dose: 200.0 mg/kg/injection, schedule: Q01DX001 (ip), vehicle: saline with Tween-80)?
A: 114 % of control

Q: And the T/C (dose: 400.0 mg/kg/injection, schedule: Q01DX001 (ip), vehicle: saline with Tween-80)?
A: 107 % of control

Q: What does the source list for O=C(Nc1cccc(S(=O)(=O)F)c1)Oc1ccc([N+](=O)[O-])cc1?
A: T/C [1]: 113 % of control; T/C [2]: 111 % of control; T/C [3]: 93 % of control

Q: What does the source list for COC(=O)/C=C/C=C/c1ccco1?
A: T/C [4]: 99 % of control; T/C [5]: 87 % of control; T/C [6]: 89 % of control

Q: For CN(C)[C@@H]1C(=O)C(C(=O)NCNC2CC(C)(C)N(O)C(C)(C)C2)=C(O)C2(O)C(=O)C3=C(O)c4c(O)cccc4[C@@](C)(O)C3CC12 (stereo partly drawn), which T/C (dose: 100.0 mg/kg/injection, schedule: Q01DX001 (ip), vehicle: saline) is on record?
A: 105 % of control

Q: What about the T/C (dose: 200.0 mg/kg/injection, schedule: Q01DX001 (ip), vehicle: saline) of the same molecule?
A: 89 % of control

Q: What about the T/C (dose: 400.0 mg/kg/injection, schedule: Q01DX001 (ip), vehicle: saline) of the same molecule?
A: 91 % of control

Q: For O=S(=O)(c1cc(Cl)ccc1Cl)N(CCCCCN(S(=O)(=O)c1cc(Cl)ccc1Cl)S(=O)(=O)c1cc(Cl)ccc1Cl)S(=O)(=O)c1cc(Cl)ccc1Cl, which T/C [1] is on record?
A: 99 % of control

Q: What about the T/C [2] of the same molecule?
A: 96 % of control

Q: And the T/C [3]?
A: 95 % of control

Q: Which T/C [4] does the source give for c1ccc2sc(-c3ccncc3)nc2c1 here?
A: 102 % of control

Q: And the T/C [5]?
A: 99 % of control

Q: And the T/C [6]?
A: 108 % of control

Q: What does the source list for CCCCCCCCCCCC(=O)CCCC?
A: T/C (dose: 100.0 mg/kg/injection, schedule: Q04DX003 (ip), vehicle: other): 104 % of control; T/C (dose: 200.0 mg/kg/injection, schedule: Q04DX003 (ip), vehicle: other): 113 % of control; T/C (dose: 400.0 mg/kg/injection, schedule: Q04DX003 (ip), vehicle: other): 118 % of control

Q: What does the source list for COC(=O)NC1CC1C(=O)OC (stereo not drawn)?
A: T/C (dose: 100.0 mg/kg/injection, schedule: Q01DX002 (ip), vehicle: saline): 104 % of control; T/C (dose: 200.0 mg/kg/injection, schedule: Q01DX002 (ip), vehicle: saline): 99 % of control; T/C (dose: 400.0 mg/kg/injection, schedule: Q01DX002 (ip), vehicle: saline): 102 % of control

Q: With OCC1OC(SC2OC(CO)C(O)C(O)C2O)C(O)C(O)C1O (stereo not drawn) as the molecule, how does the T/C (dose: 100.0 mg/kg/injection, schedule: Q01DX001 (ip), vehicle: water) read?
A: 114 % of control

Q: What about the T/C (dose: 200.0 mg/kg/injection, schedule: Q01DX001 (ip), vehicle: water) of the same molecule?
A: 94 % of control

Q: And the T/C (dose: 400.0 mg/kg/injection, schedule: Q01DX001 (ip), vehicle: water)?
A: 100 % of control

Q: How did the T/C (dose: 12.5 mg/kg/injection, schedule: Q01DX005 (ip), vehicle: Klucel (hydroxypropylcellulose) (HPC)) turn out when CN(C)CCO/N=C1/CC[C@H]2[C@@H]3CC[C@H]4C[C@H](O)CC[C@]4(C)[C@H]3CC[C@]12C was run?
A: 104 % of control

Q: What about the T/C (dose: 25.0 mg/kg/injection, schedule: Q01DX005 (ip), vehicle: Klucel (hydroxypropylcellulose) (HPC)) of the same molecule?
A: 95 % of control

Q: And the T/C [7]?
A: 95 % of control

Q: What does the source list for COc1ccc(N=c2nc3n4c(c(Cl)cc(Cl)c4n2)NC(C(Cl)(Cl)Cl)=N3)cc1?
A: T/C (dose: 60.0 mg/kg/injection, schedule: Q01DX005 (ip), vehicle: Klucel + Tween-80): 93 % of control; T/C (dose: 120.0 mg/kg/injection, schedule: Q01DX005 (ip), vehicle: Klucel + Tween-80): 92 % of control; T/C (dose: 240.0 mg/kg/injection, schedule: Q01DX005 (ip), vehicle: Klucel + Tween-80): 96 % of control

Q: CCCCn1ccc(=O)[nH]c1=O was tested. Which T/C [7] did it give?
A: 93 % of control

Q: What about the T/C (dose: 100.0 mg/kg/injection, schedule: Q01DX005 (ip), vehicle: Klucel (hydroxypropylcellulose) (HPC)) of the same molecule?
A: 99 % of control

Q: What about the T/C (dose: 200.0 mg/kg/injection, schedule: Q01DX005 (ip), vehicle: Klucel (hydroxypropylcellulose) (HPC)) of the same molecule?
A: 101 % of control

Q: What does the source list for O=c1[nH]nc(-c2ccc(Cl)cc2)c2c1[nH]c1ccccc12?
A: T/C [1]: 98 % of control; T/C [2]: 97 % of control

Q: For C=C(C)C(=O)OC1CC2(C)OC2CCC2(C)OC2C2OC(=O)C(=C)C12 (stereo not drawn), which T/C (dose: 10.0 mg/kg/injection, schedule: Q01DX005 (ip), vehicle: Klucel (hydroxypropylcellulose) (HPC)) is on record?
A: 108 % of control

Q: What about the T/C (dose: 20.0 mg/kg/injection, schedule: Q01DX005 (ip), vehicle: Klucel (hydroxypropylcellulose) (HPC)) of the same molecule?
A: 106 % of control

Q: What about the T/C (dose: 40.0 mg/kg/injection, schedule: Q01DX005 (ip), vehicle: Klucel (hydroxypropylcellulose) (HPC)) of the same molecule?
A: 100 % of control

Q: With CCCCCSC1=NC(c2ccc(C)cc2)(c2ccc(C)cc2)C(=O)N1 as the molecule, how does the T/C (dose: 50.0 mg/kg/injection, schedule: Q01DX005 (ip), vehicle: Klucel + Tween-80) read?
A: 100 % of control

Q: And the T/C (dose: 100.0 mg/kg/injection, schedule: Q01DX005 (ip), vehicle: Klucel + Tween-80)?
A: 100 % of control

Q: What about the T/C (dose: 200.0 mg/kg/injection, schedule: Q01DX005 (ip), vehicle: Klucel + Tween-80) of the same molecule?
A: 98 % of control

Q: Cc1cccc2c(-c3ccccc3)c3cccc[n+]3cc12 was tested. Which T/C (dose: 0.78 mg/kg/injection, schedule: Q01DX005 (ip), vehicle: Klucel (hydroxypropylcellulose) (HPC)) did it give?
A: 100 % of control and 103 % of control

Q: And the T/C (dose: 1.56 mg/kg/injection, schedule: Q01DX005 (ip), vehicle: Klucel (hydroxypropylcellulose) (HPC))?
A: 108 % of control and 89 % of control

Q: And the T/C (dose: 3.12 mg/kg/injection, schedule: Q01DX005 (ip), vehicle: Klucel (hydroxypropylcellulose) (HPC))?
A: 103 % of control and 97 % of control

Q: And the T/C (dose: 6.25 mg/kg/injection, schedule: Q01DX005 (ip), vehicle: Klucel (hydroxypropylcellulose) (HPC))?
A: 94 % of control

Q: What does the source list for CCOc1ccc2nc(N=NC(C(C)=O)C(C)=O)sc2c1?
A: T/C [8]: 90 % of control; T/C (dose: 100.0 mg/kg/injection, schedule: Q01DX009 (ip), vehicle: saline): 92 % of control; T/C (dose: 200.0 mg/kg/injection, schedule: Q01DX009 (ip), vehicle: saline): 92 % of control

Q: Which results are given for Cc1c2cnccc2c(C)c2c1c1ccccc1n2CC1CO1 (stereo not drawn)?
A: T/C (dose: 6.25 mg/kg/injection, schedule: Q01DX009 (ip), vehicle: saline with Tween-80): 155 % of control; T/C (dose: 8.0 mg/kg/injection, schedule: Q01DX009 (ip), vehicle: Klucel (hydroxypropylcellulose) (HPC)): 111 % of control; T/C (dose: 11.0 mg/kg/injection, schedule: Q01DX009 (ip), vehicle: saline with Tween-80): 158 % of control; T/C (dose: 12.5 mg/kg/injection, schedule: Q01DX009 (ip), vehicle: saline with Tween-80): 152 % of control; T/C (dose: 16.0 mg/kg/injection, schedule: Q04DX003 (ip), vehicle: Klucel (hydroxypropylcellulose) (HPC)): 122 % of control; T/C (dose: 16.5 mg/kg/injection, schedule: Q01DX009 (ip), vehicle: saline with Tween-80): 171 % of control; T/C [9]: 160 % of control and 168 % of control; T/C [4]: 88 % of control; T/C (dose: 128.0 mg/kg/injection, schedule: Q04DX003 (ip), vehicle: Klucel (hydroxypropylcellulose) (HPC)): 159 % of control

Q: What does the source list for CC1(O)CC23CC(O)C4(O)C(CC(O)C4(C)C)C(C)(O)C2CCC1C3O (stereo not drawn)?
A: T/C (dose: 0.25 mg/kg/injection, schedule: Q01DX009 (ip), vehicle: Klucel (hydroxypropylcellulose) (HPC)): 97 % of control; T/C (dose: 0.5 mg/kg/injection, schedule: Q01DX009 (ip), vehicle: Klucel (hydroxypropylcellulose) (HPC)): 103 % of control

Q: With COc1ccc2sc3c(C)ccc(NCCN(C)C)c3c(=O)c2c1 as the molecule, how does the T/C [4] read?
A: 115 % of control

Q: With COC(=O)c1cc(OCC#CC#CCOc2ccc(O)c(C(=O)OC)c2)ccc1O as the molecule, how does the T/C [1] read?
A: 95 % of control

Q: What about the T/C [2] of the same molecule?
A: 89 % of control

Q: What about the T/C [3] of the same molecule?
A: 86 % of control

Q: With COC(=O)C(Cl)c1ccccc1 (stereo not drawn) as the molecule, how does the T/C [5] read?
A: 104 % of control

Q: And the T/C [6]?
A: 113 % of control

Q: And the T/C (dose: 400.0 mg/kg/injection, schedule: Q01DX009 (ip), vehicle: saline with Tween-80)?
A: 100 % of control

Q: What does the source list for CC(=O)OC1C(=O)C=C(C)OC1=O (stereo not drawn)?
A: T/C [1]: 102 % of control; T/C [2]: 99 % of control; T/C [3]: 106 % of control

Q: Which T/C [9] does the source give for C/C(=N\NC(N)=O)c1cccc(/C(C)=N/NC(N)=O)n1 here?
A: 116 % of control

Q: What about the T/C [4] of the same molecule?
A: 109 % of control and 118 % of control

Q: Which results are given for CCCOc1cc2c(cc1C(C)c1ccc(OC)c(C)c1)OCO2 (stereo not drawn)?
A: T/C (dose: 60.0 mg/kg/injection, schedule: Q01DX005 (ip), vehicle: saline + Tween-80 + alcohol): 97 % of control; T/C (dose: 120.0 mg/kg/injection, schedule: Q01DX005 (ip), vehicle: saline + Tween-80 + alcohol): 109 % of control; T/C (dose: 240.0 mg/kg/injection, schedule: Q01DX005 (ip), vehicle: saline + Tween-80 + alcohol): 108 % of control

Q: How did the T/C (dose: 33.0 mg/kg/injection, schedule: Q01DX009 (ip), vehicle: saline) turn out when CN1CCC2=C(C1)C(c1ccccc1)c1ccccc12 (stereo not drawn) was run?
A: 107 % of control

Q: And the T/C [8]?
A: 104 % of control

Q: What about the T/C (dose: 75.0 mg/kg/injection, schedule: Q01DX009 (ip), vehicle: saline) of the same molecule?
A: 107 % of control
